Legend:
HLA-DRB1 in WM793 cells = experiment: Immunofluorescent subcellular localization of HLA-DRB1; type: cell-based, human; settings: vs. vehicle (DMSO)
Text: FIGS. 18A-18F show N-linked fucosylation of HLA-DRB1 at N48 regulates its cell surface localization and is required for tumor suppression and increased TIL abundance. (a) (upper) Amino acid sequence alignments showing conservation of predicted N- and O-linked fucosylation sites in human HLA-DRB1 (N48 and T129) and mouse H2EB1 (N46 and T147). Structural modeling of the HLA-DRB1:HLA-DM (lower left) and CD4:HLA-DRB1:TCR (lower right) complexes. Potential glycosylation sites, N48 and T129, of HLA-DR1 beta chain are shown as sticks. CD4 (cyan), HLA-DRB1 (yellow), antigen peptide (magenta), and TCR (green)(lower right). (b) HLA-DRB1 peptide fragment identified by nano-LC/MS to be fucosylated on N48, with predicted HexNAc(4)Hex(3)Fuc(1) glycan structure shown above. (c) Lectin pull down (LPD) and IB analyses of EV and V5-tagged wild-type HLA-DRB1 (WT)-, HLA-DRB1 N48G (N48G)-, and HLA-DRB1 T129A (T129A)-expressing WM793 cells. (d) DMSO- or fucosyltransferase inhibitor (FUTi)-treated WM793 cells immunofluorescently stained for endogenous HLA-DRB1, KDEL (ER marker), and DAPI (20× magnification). […]

[1] = tested on: human PBMC-derived, CD3/CD28-activated CD4+T cells; experiment: Phosphoproteomic and fuco-proteomic mass spectrometric profiling of CD4+T cells; type: cell-based; settings: 250 μM L-fucose, 48 h
Text: FIGS. 14A-14E show Fucosylation of CD4^+T cells affects PKA activity and actin polymerization; and the identification of Integrin P5 as a highly fucosylated protein in activated CD4+ T cells. (a) Top 5 pathways in human CD4^+T cells that are affected by increased fucosylation identified by Ingenuity Pathway Analysis (Qiagen; pathways were identified from phosphoproteomic analyses of CD3/CD28-activated human PBMC-derived CD4^+T cells treated L-fucose (LF) isolated from 3 independent healthy human donors (D1, D2, D3)). (b) (left) Immunoblot of PKA phosphorylated substrates (top) and Ponceau staining (bottom) of human PBMC-derived, CD3/CD28-activated CD4^+T cells that were treated ±250 μM LF±10 μM forskolin (Fkn, a PKA agonist). (right) Densitometric quantification of selected bands (red dashed boxes) normalized to Ponceau staining. (c) Immunoblot of β-actin (top) and Ponceau staining (middle) of human PBMC-derived, CD3/CD28 activated CD4^+T cells were treated ±250 μM LF±25 mM DTSP crosslinker (x-link). (bottom) Densitometric quantification of high molecular weight β-actin oligomers (red dashed boxes) normalized to Ponceau intensity and then normalized to −LF, -x-link samples. (d) Top 5 AAL-bound (fucosylated) proteins in human PBMC-derived, CD3/CD28-activated CD4^+T cells from (a) that were identified by Ingenuity Pathway Analysis (Qiagen). […]

| SMILES | subcellular localization of HLA-DRB1 (HLA-DRB1 in WM793 cells) | Protein Kinase A (PKA) and actin signaling [1] |
| --- | --- | --- |
| CC(=O)OC1O[C@@H](C)[C@@H](OC(C)=O)[C@@H](OC(C)=O)[C@@H]1F (some centres unmarked) [FUTi, 2F-peracteyl-fucose, reference compound] | dimmer, more central, endoplasmic reticulum-co-localization of HLA-DRB1 |  |
| C[C@H](O)[C@@H](O)[C@@H](O)[C@H](O)C=O [L-fucose] |  | significantly altering |

— patent US20240197761A1, “FUCOSYLATION AND IMMUNE MODULATION IN CANCER” (H. LEE MOFFITT CANCER CENTER AND RESEARCH INSTITUTE, INC., priority 2021, published 2024)
